Source: US8906909B2 (Curis, Inc., priority 2009, dated 2014)

System: HDACs (HeLa cell nuclear extracts)
Assay: HDAC enzymatic activity, Biomol Color de Lys system
Format: biochemical
Experimental: (e) An In Vitro Assay which Determines the Ability of a Test Compound to Inhibit HDAC Enzymatic Activity.
HDAC inhibitory activity was assessed using the Biomol Color de Lys system (AK-500, Biomol, Plymouth Meeting, Pa.). Briefly, HeLa cell nuclear extracts were used as a source of HDACs. Different concentrations of test compounds were serially diluted in dimethylsulphoxide (DMSO) and added to HeLa cell nuclear extracts in the presence of a colorimetric artificial substrate. Final assay condition contained 50 mM Tris/Cl, pH 8.0, 137 mM NaCl, 2.7 mM KCl and 1 mM MgCl2. Reactions were carried in room temperature (25° C.) for 1 hour before addition of developer for termination. Relative enzyme activity was measured in the WALLAC Victor II 1420 microplate reader as floorescence intensity (excitation: 350-380 nm; emission: 440-460 nm). Data were analyzed using GraphPad Prism (v4.0a) with a sigmoidal dose response curve fitting for IC50 calculation.

Structure (SMILES) | IC50
Cc1c(CN(C)c2ncc(C(=O)NO)cn2)sc2c(N3CCOCC3)nc(-c3cccc4[nH]ncc34)nc12 [Compound 68] | < 100 nM
CN(Cc1cc2cc(-c3cccc4[nH]ncc34)nc(N3CCOCC3)c2s1)c1ncc(C(=O)NO)cn1 [Compound 74] | < 100 nM
O=C(CCCCCNc1cc2nc(-c3cccc4[nH]ncc34)nc(N3CCOCC3)c2s1)NO [Compound 19] | < 100 nM
Nc1ccc(-c2nc(N3CCOCC3)c3sc(CNCc4ccc(/C=C/C(=O)NO)cc4)cc3n2)cc1 [Compound 210] | 100 to 1000 nM
COc1ccc(-c2nc(N3CCOCC3)c3sc(C(C)N(C)c4ncc(C(=O)NO)cn4)cc3n2)cn1 (stereo not drawn) [Compound 247, N-hydroxy-2-((1-(2-(6-methoxypyridin-3-yl)-4-morpholinothieno[3,2-d]pyrimidin-6-yl)ethyl)(methyl)amino)pyrimidine-5-carboxamide] | < 100 nM
COCCN(CCOC)c1nc(-c2cccc3[nH]ncc23)nc2cc(CN(C)c3ncc(C(=O)NO)cn3)sc12 [Compound 163] | < 100 nM
CN(CC1CCN(c2ncc(C(=O)NO)cn2)CC1)c1cc2nc(-c3cccc4[nH]ncc34)nc(N3CCOCC3)c2s1 [Compound 49] | 100 to 1000 nM
COCCNc1nc(-c2cccc3[nH]ncc23)nc2cc(CN(C)c3ncc(C(=O)NO)cn3)sc12 [Compound 160] | < 100 nM
O=C(NO)c1cnc(N2CCC(CNc3cc4nc(-c5cccc6[nH]ncc56)nc(N5CCOCC5)c4s3)CC2)nc1 [Compound 48] | < 100 nM
Nc1ccc(-c2nc(N3CCOCC3)c3sc(CN4CCN(c5ncc(C(=O)NO)cn5)CC4)cc3n2)cc1 [Compound 207] | < 100 nM
CN(Cc1cc2nc(-c3cccc(C(C)(C)O)c3)nc(N3CCOCC3)c2s1)c1ncc(C(=O)NO)cn1 [Compound 302] | < 100 nM
CNc1ccc(-c2nc(N3CCOCC3)c3sc(C(C)(C)N(C)c4ncc(C(=O)NO)cn4)cc3n2)cn1 [Compound 241] | < 100 nM
CC(C)(Nc1ncc(C(=O)NO)cn1)c1cc2nc(-c3cccc4[nH]ncc34)nc(N3CCOCC3)c2s1 [Compound 71] | < 100 nM
CCCc1nc2cc(/C=C/C(=O)NO)ccc2n1CCNCc1cc2nc(-c3ccc(N)cc3)nc(N3CCOCC3)c2s1 [Compound 325] | 100 to 1000 nM
CS(=O)(=O)N1CCN(Cc2cc3nc(-c4cccc5[nH]ncc45)nc(NCCCCCCC(=O)NO)c3s2)CC1 [Compound 36] | < 100 nM
CN(Cc1cc2nc(-c3ccc(OCc4ccccc4)nc3)nc(N3CCOCC3)c2s1)c1ncc(C(=O)NO)cn1 [Compound 260] | < 100 nM
COc1ncc(-c2nc(N3CCOCC3)c3sc(C(C)(C)N(C)c4ncc(C(=O)NO)cn4)cc3n2)cn1 [Compound 264] | < 100 nM
Nc1ccc(-c2nc(N3CCOCC3)c3sc(CNCc4ccc(C(=O)NO)cc4)cc3n2)cc1 [Compound 209] | < 100 nM
O=C(CCCCCCNc1cc2nc(-c3cccc4[nH]ncc34)nc(N3CCOCC3)c2s1)NO [Compound 20] | < 100 nM
CNc1ccc(-c2nc(N3CCOCC3)c3sc(NS(=O)(=O)c4cccc(/C=C/C(=O)NO)c4)cc3n2)cn1 [Compound 224] | < 100 nM

Structure (SMILES) | IC50
CC(C)(Nc1ncc(C(=O)NO)cn1)c1cc2nc(-c3ccc(N)cc3)nc(N3CCOCC3)c2s1 [Compound 269, 2-(2-(2-(4-Aminophenyl)-4-morpholinothieno[3,2-d]pyrimidin-6-yl)propan-2-ylamino)-N-hydroxypyrimidine-5-carboxamide] | < 100 nM
CNc1ccc(-c2nc(N3CCOCC3)c3sc(CN(CCO)c4ncc(C(=O)NO)cn4)cc3n2)cn1 [Compound 245] | < 100 nM
C/C(=N/O)c1cccc(-c2nc(N3CCOCC3)c3sc(CN(C)c4ncc(C(=O)NO)cn4)cc3n2)c1 [Compound 299] | < 100 nM
COc1ccc(-c2nc(N3CCOCC3)c3sc(NCCCCC(=O)NO)cc3n2)cn1 [Compound 230] | < 100 nM
CN(Cc1cc2nc(-c3cnc(C(N)=O)nc3)nc(N3CCOCC3)c2s1)c1ncc(C(=O)NO)cn1 [Compound 122] | < 100 nM
CN(Cc1cc2nc(-c3cccc4[nH]ncc34)nc(N3CCNCC3)c2s1)c1ncc(C(=O)NO)cn1 [Compound 60] | < 100 nM
CC(=O)N1CCN(c2nc(-c3cccc4[nH]ncc34)nc3cc(CN(C)c4ncc(C(=O)NO)cn4)sc23)CC1 [Compound 62] | < 100 nM
Cc1ncc(-c2nc(N3CCOCC3)c3sc(CN(C)c4ncc(C(=O)NO)cn4)cc3n2)s1 [Compound 311] | < 100 nM
CN(C)CCN(Cc1cc2nc(-c3cccc4[nH]ncc34)nc(N3CCOCC3)c2s1)c1ncc(C(=O)NO)cn1 [Compound 95] | 100 to 1000 nM
Nc1ccc(-c2nc(N3CCOCC3)c3sc(Nc4ncc(C(=O)NO)cn4)cc3n2)cc1 [Compound 273] | 100 to 1000 nM
CN(Cc1cc2nc(-c3cccc4[nH]c(=O)[nH]c34)nc(N3CCOCC3)c2s1)c1ncc(C(=O)NO)cn1 [Compound 314] | < 100 nM
O=C(NO)c1cnc(N2CCN(S(=O)(=O)c3cc4nc(-c5cccc6[nH]ncc56)nc(N5CCOCC5)c4s3)CC2)nc1 [Compound 51] | 100 to 1000 nM
CN(Cc1cc2nc(-c3cccc4c3CC(=O)N4)nc(N3CCOCC3)c2s1)c1ncc(C(=O)NO)cn1 [Compound 178] | < 100 nM
O=C(CCCCNc1cc2nc(-c3cccc4[nH]ncc34)nc(N3CCOCC3)c2s1)NO [Compound 18] | < 100 nM
CN(Cc1cc2nc(-c3ccc(O)nc3)nc(N3CCOCC3)c2s1)c1ncc(C(=O)NO)cn1 [Compound 254] | < 100 nM
CC(C)OC(=O)Nc1ccc(-c2nc(N3CCOCC3)c3sc(CN(C)c4ncc(C(=O)NO)cn4)cc3n2)cc1 [Compound 287] | < 100 nM
CS(=O)(=O)N1CCN(Cc2cc3nc(-c4cccc5[nH]ncc45)nc(NCCCCCC(=O)NO)c3s2)CC1 [Compound 35] | < 100 nM
COC(=O)CN(Cc1cc2nc(-c3cccc4[nH]ncc34)nc(N3CCOCC3)c2s1)c1ncc(C(=O)NO)cn1 [Compound 89] | < 100 nM
CNc1ccc(-c2nc(N3CCOCC3)c3sc(NS(=O)(=O)c4ccc(/C=C/C(=O)NO)cc4)cc3n2)cn1 [Compound 223] | < 100 nM
CN(Cc1cc2nc(-c3cccc4c3CNC4=O)nc(N3CCOCC3)c2s1)c1ncc(C(=O)NO)cn1 [Compound 181] | < 100 nM

Structure (SMILES) | IC50
CN(Cc1cc2nc(-c3ccc(N)cc3F)nc(N3CCOCC3)c2s1)c1ncc(C(=O)NO)cn1 [Compound 283, 2-{[2-(4-Amino-2-fluoro-phenyl)-4-morpholin-4-yl-thieno[3,2-d]pyrimidin-6-ylmethyl]-methyl-amino}-pyrimidine-5-carboxylic acid hydroxyamide] | < 100 nM
O=C(/C=C/c1ccc(S(=O)(=O)Nc2cc3nc(-c4cccc5[nH]ncc45)nc(N4CCOCC4)c3s2)cc1)NO [Compound 50] | < 100 nM
NC(=O)CN(Cc1cc2nc(-c3cccc4[nH]ncc34)nc(N3CCOCC3)c2s1)c1ncc(C(=O)NO)cn1 [Compound 97] | < 100 nM
CC(=O)NCCN(Cc1cc2nc(-c3cccc4[nH]ncc34)nc(N3CCOCC3)c2s1)c1ncc(C(=O)NO)cn1 [Compound 96] | < 100 nM
CN(Cc1cc2nc(-c3cccc(C(N)=O)c3)nc(N3CCOCC3)c2s1)c1ncc(C(=O)NO)cn1 [Compound 142, 2-(((2-(3-carbamoylphenyl)-4-morpholinothieno[3,2-d]pyrimidin-6-yl)methyl)(methyl)amino)-N-hydroxypyrimidine-5-carboxamide] | < 100 nM
CC1CN(c2nc(-c3cccc4[nH]ncc34)nc3cc(CN(C)c4ncc(C(=O)NO)cn4)sc23)CC(C)O1 (stereo not drawn) [Compound 65] | < 100 nM
CCN(Cc1cc2nc(-c3ccc(N)cc3)nc(N3CCOCC3)c2s1)c1ncc(C(=O)NO)cn1 [Compound 215] | < 100 nM
C#CCCN(Cc1cc2nc(-c3cccc4[nH]ncc34)nc(N3CCOCC3)c2s1)c1ncc(C(=O)NO)cn1 [Compound 98] | < 100 nM
CN(Cc1cc2nc(-c3cccc4[nH]ncc34)nc(N3CCN(CCO)CC3)c2s1)c1ncc(C(=O)NO)cn1 [Compound 63] | < 100 nM
CCCc1nc2cc(/C=C/C(=O)NO)ccc2n1CCN(C)Cc1cc2nc(-c3ccc(NC)nc3)nc(N3CCOCC3)c2s1 [Compound 322] | 100 to 1000 nM
CS(=O)(=O)N1CCN(Cc2cc3nc(-c4cccc5[nH]ncc45)nc(NCCCCC(=O)NO)c3s2)CC1 [Compound 34] | 100 to 1000 nM
CC(=O)c1cccc(-c2nc(N3CCOCC3)c3sc(CN(C)c4ncc(C(=O)NO)cn4)cc3n2)c1 [Compound 300] | < 100 nM
CN(c1ncc(C(=O)NO)cn1)C(C)(C)c1cc2nc(-c3ccc(N)cc3)nc(N3CCOCC3)c2s1 [Compound 270] | < 100 nM
O=C(NO)c1cc2nc(-c3cccc4[nH]ncc34)nc(N3CCOCC3)c2s1 [Compound 45] | > 10000 nM
O=C(O)CN(Cc1cc2nc(-c3cccc4[nH]ncc34)nc(N3CCOCC3)c2s1)c1ncc(C(=O)NO)cn1 [Compound 88] | 100 to 1000 nM
CNc1ccc(-c2nc(N3CCOCC3)c3sc(CN(C)Cc4nc5cc(/C=C/C(=O)NO)ccc5n4C)cc3n2)cn1 [Compound 329] | 100 to 1000 nM
CN(c1ncc(C(=O)NO)cn1)c1cc2nc(-c3ccc(N)cc3)nc(N3CCOCC3)c2s1 [Compound 272] | < 100 nM
COc1ccccc1Nc1nc(-c2cccc3[nH]ncc23)nc2cc(CN(C)c3ncc(C(=O)NO)cn3)sc12 [Compound 167] | < 100 nM
COc1ccc(-c2nc(N3CCOCC3)c3sc(C(C)(C)Nc4ncc(C(=O)NO)cn4)cc3n2)cn1 [Compound 250, N-Hydroxy-2-(2-(2-(6-methoxypyridin-3-yl)-4-morpholinothieno[3,2-d]pyrimidin-6-yl)propan-2-ylamino)pyrimidine-5-carboxamide] | < 100 nM
O=C(NO)c1ccc2c(ccn2Cc2cc3nc(-c4cccc5[nH]ncc45)nc(N4CCOCC4)c3s2)c1 [Compound 105] | 100 to 1000 nM
